Laboratory results from US11730830B2, “Topical application of nerve labeling dyes for image-guided surgery” (General Electric Company, priority 2016, dated 2023).

Experiments:
[1] = system: rat nerve tissue sections; experiment: Ex vivo labeling of cryosectioned nerve tissue; conditions: 10 uM, 1 h, buffer with 10% Cremophor EL and 65% rat serum in PBS
From the text: Various nerves were harvested from male Sprague Dawley rats. Tissue was fixed by perfusion and post-fixed with 10% neutral buffered formalin. Following post-fixation, tissue was cryoprotected in a 20% sucrose solution made in phosphate buffered saline (PBS). Nerves were then flash-frozen using methanol and dry ice in OCT media. In some cases, polyvinylidene fluoride membranes were used to help keep the nerves vertical in the OCT media. 5-10 micron section were sliced on a Leica microtome and stored in a −80° C. freezer prior to staining with agents (1)-(5).
For ex vivo staining of nerve sections, the slides were rinsed in PBS (3×5 min). Contrast agent (with a final concentration of 10 uM) was added onto the tissue in a buffer containing 10% Cremophor EL and 65% rat serum in PBS. The slides were incubated for 1 h in a dark, humid chamber after which they were washed with PBS (3×5 min), cover-slipped, and imaged using a custom filter cube (excitation filter: 387 nm with 11 nm band pass, 409 nm dichroic mirror; emission filter: 409 nm long pass). A buffer only control was also performed using exactly the same procedure to determine autofluorescence under the same settings.
Molecules that are related to the “push-pull” core structure of this class of compound would also benefit from this new method of application. The following is an example of ex vivo labeling of resected nerve tissue. In here, compounds used to stain cryo sectioned nerve tissue from rats.

nerves = experiment: Intraoperative topical application at the surgical site, fluorescence nerve imaging in murine model; format: in vivo, mouse
Procedure: (§1) Commercial small animal system: A fluorescence stereomicroscope (SteREO Lumar V12, Carl Zeiss Inc., Thornwood, N.Y.) equipped with a multispectral imaging camera (Nuance, CRI, Woburn, Mass.) was used with an exposure time of 1-5 s. Excitation of the flurophores was achieved using a filter centered at 406 nm with a 15 nm bandwidth. The fluorescence emission spectrum was recorded at wavelengths ranging from 420 to 720 nm at 10-nm increments using the attached multispectral camera. Alternatively, we had also used an emission filter with 550 long pass filter (in the absence of multispectral camera).
(§2) The laparoscope module comprises a standard 10 mm zero degree surgical laparoscope with 70 degree field of view, a 4 mm diameter, 1800 mm long laparoscope light guide, 35 mm video coupler, a compact 90 gram, 659×494 pixel GigE color camera (acA640-90gc Basler, Ahrensburg, Germany), and a 405 nm blocking filter (BLP01-405R Semrock, Rochester, N.Y.), which has >97% transmission from 420 to 800 nm. The ⅓″ format sensor provides high sensitivity with 7.4 μm pixel size and adequate field of view (40 degrees out of 70 degrees passed by the laparoscope). The video coupler interfaces with the eyepiece of the laparoscope providing an interchangeable set up for different types of laparoscopes. The 405 nm filter is secured directly in front of the image sensor with a c-mount retaining ring. The camera threads onto the video coupler directly.
Illumination for white light and fluorescence imaging is coupled into a single light guide using conventional optics. The light coupling module consists of two 32 mm aspheric lenses to collimate a white light LED and a 500 mW, 405 nm blue laser diode coupled into a multimode fiber with 400 μm diameter (Shanghai Laser & Optics Century Co., Ltd., China). The LED spectrum is filtered with a 450 nm long pass filter (NT49-819, Edmund Optics, Barrington, N.J.) to minimize excitation of the fluorescent agent, while maintaining the white light color spectrum. The LED and laser are combined with a 425 nm dichroic mirror (DMLP425R, Thorlabs). The combined illumination is coupled into the light guide with a third 32 mm aspheric lens (ACL4532, Thorlabs). The maximum irradiance from the LED and 405 nm laser are 2.0 mW/cm2 and 7.3 mW/cm2, respectively, at 25 mm from the tip of the laparoscope. Formulation, dosing, and kinetics for in vivo imaging following systemic IV injection of contrast agent in animal model:
Several different formulations were tested, including but not limited to: • Formulation 1: 10% PEG-300; 20% PG; 0.4% Carbopol; 69.6% water; • Formulation 2: 10% DMSO; 20% PEG-800; 20% PG; 0.1% Polysorbate-80; 49.9% Water; • Formulation 3: 30% PEG-300; 5% DMSO; 10% PVA; 55% water; • Formulation 4: 30% PEG-300; 10% PVA; 60% water; • Formulation 5: 30% PEG-300; 5% DMSO; 30% Pluronic F-68; 0.1% Polysorbate-80; 34.9% water; • Formulation 6: 20% PEG-300; 10% PG; 5% PVP; 5% Laurocapram; 60% water; • Formulation 7: 20% PEG-300; 10% PG; 5% PVP; 5% Laurocapram; 5% EtOH; 5% oleic acid; 10% Tween-80; 40% water; where: PVA=polyvinyl alcohol; PVP=polyvinyl pyrrolidone; and PEG=polyethylene glycol. […]
Topically administered nerve labeling dyes were also able to label nerves in a living animal. The fluorescence from nerves can be detected within minutes after intraoperative topical application. Representative white light and fluorescence images of topically administered FORMULA I(f) in a mouse are shown in FIG. 2A (white light) and FIG. 2B (fluorescence). […]

[2] = Solubility check of the IV formulation; format: physicochemical; conditions: propylene glycol, 2-HPβCD, water, pH 7.4; visual, centrifugation, buffer dissolution, dynamic light scattering
Procedure: (§3) For systemic administration by IV injection, the contrast agents were formulated using the following excipients: 5-15% propylene glycol (Fisher P355-1), 5-30% 2-hydroxypropyl-β-cyclodextrin (2-HPβCD, Sigma H5784) and 70-90% distilled/deionized water. In some cases, PEG-300 and DMSO were also added. The IV formulation was brought to a final pH of 7.4 using 1M of hydrochloric acid.
Specifically, IV formulation for FORMULA I(f) consisted of 80% distilled/deionized water, 10% 2-hydroxypropyl-β-cyclodextrin (2-HPβCD, Sigma H5784), and 10% propylene glycol (Fisher P355-1).

sciatic nerve = experiment: Kinetics of uptake and clearance after systemic IV injection, in vivo fluorescence imaging; design: species or system murine; conditions: IV injection 16.6 mg/kg
Procedure: as §1, §3
Specifically, IV formulation for FORMULA I(f) consisted of 80% distilled/deionized water, 10% 2-hydroxypropyl-β-cyclodextrin (2-HPβCD, Sigma H5784), and 10% propylene glycol (Fisher P355-1). […]
A dose of 16.6 mg/kg of FORMULA I(f) was used for measuring the nerve fluorescence at 0.5, 1, 2, 3 and 4 hours after IV injection. […]

nerve = experiment: Intraoperative topical application in porcine surgical model, real-time fluorescence imaging; format: in vivo; conditions: pig
From the text: as §2
Illumination for white light and fluorescence imaging is coupled into a single light guide using conventional optics. The light coupling module consists of two 32 mm aspheric lenses to collimate a white light LED and a 500 mW, 405 nm blue laser diode coupled into a multimode fiber with 400 μm diameter (Shanghai Laser & Optics Century Co., Ltd., China). The LED spectrum is filtered with a 450 nm long pass filter (NT49-819, Edmund Optics, Barrington, N.J.) to minimize excitation of the fluorescent agent, while maintaining the white light color spectrum. […]

SMILES | fluorescent staining of nerve tissue sections [1] | nerve labeling by topical application (nerves; mouse, small animal commercial instrument) | solubility in the IV formulation [2] | best nerve-to-muscle ratio (sciatic nerve; 1 h post-injection, murine model) | time of maximum sciatic nerve and adipose tissue fluorescence (sciatic nerve; measured at 0.5, 1, 2, 3 and 4 hours) | topical dose that effectively visualizes fluorescent nerves (nerves; Formulation 6, incubated 3 minutes, irrigated with saline, mouse model) | penetration into the nerve bundle, fluorescence microscopy of cryosectioned sciatic nerve (nerves; after topical application, irrigation and excision, 15 micron sections, murine model) | fluorescence intensity from surrounding muscle tissue, topical versus systemic administration (nerves; topical about 0.1 milligrams in Formulation 4 versus IV about 16 mg/kg, multispectral imaging, murine model) | detection of very fine nerve fibers in a brachial plexus branch (nerves; topical in Formulation 4, 5 minutes, irrigated with sterile saline, dual-mode laparoscopic instrument, mouse) | nerve visibility under fluorescence imaging versus white light (nerve; 0.3 milligrams in Formulation 6, retroperitoneal area, 3 minutes, saline irrigation) | nerve visibility under fluorescence guidance versus white light (nerve; 4 milligrams in Formulation 4, 5 minutes, warm saline irrigation)
COc1cc(/C=C/c2ccc(C#N)cc2)ccc1/C=C/c1ccc(N)cc1 [FORMULA I(d)] | most robust fluorescent staining | fluorescence nerve labeling | – | – | – | – | – | – | – | – | –
COc1cc(/C=C/c2ccc(S(C)(=O)=O)cc2)ccc1/C=C/c1ccc(N)cc1 [FORMULA I(e)] | most robust fluorescent staining | – | – | – | – | – | – | – | – | – | –
COc1cc(/C=C/c2ccc(S(=O)(=O)N3CCN(CCO)CC3)cc2)ccc1/C=C/c1ccc(N)cc1 [FORMULA I(f)] | most robust fluorescent staining | – | Complete solubility | 3.7 | 1 h | 0.01 mg | donut-shaped myelin bundles are stained | lower across all the emission wavelengths | more readily detected under fluorescence guidance | more pronounced under fluorescence imaging compared to white light imaging | highly detectable under fluorescence guidance
